According to PubChem BioAssay AID248 (DTP/NCI, 2004):
“And” between values parts separate entries of the source, which are not always exact repeats. Equal entries are not always repeated. Inconclusive results and toxic doses are left out. No stated cut-off is given here; in the data, active means T/C of 150% or more; inactive means T/C below 125%.

Test system: L1210 leukemia ip in BDF1 mice, survival T/C
Assay: NCI In Vivo Anticancer Drug Screen. Data for tumor model L1210 Leukemia (intraperitoneal) in B6D2F1 (BDF1) mice
Conditions: endpoint: mean survival time, higher = longer survival
Method in brief: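 Transplanted-tumor mice were given test agent; controls received vehicle only. Survival readings from the two groups were divided (treated over control).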

[1] = dose: 100.0 mg/kg/injection, schedule: Q01DX001 (ip), vehicle: saline
[2] = dose: 200.0 mg/kg/injection, schedule: Q01DX001 (ip), vehicle: saline
[3] = dose: 400.0 mg/kg/injection, schedule: Q01DX001 (ip), vehicle: saline
[4] = dose: 50.0 mg/kg/injection, schedule: Q01DX009 (ip), vehicle: saline
[5] = dose: 100.0 mg/kg/injection, schedule: Q01DX009 (ip), vehicle: saline
[6] = dose: 100.0 mg/kg/injection, schedule: Q04DX003 (ip), vehicle: saline
[7] = dose: 100.0 mg/kg/injection, schedule: Q01DX009 (ip), vehicle: Klucel (hydroxypropylcellulose) (HPC)
[8] = dose: 100.0 mg/kg/injection, schedule: Q04DX003 (ip), vehicle: Klucel (hydroxypropylcellulose) (HPC)
[9] = dose: 200.0 mg/kg/injection, schedule: Q01DX009 (ip), vehicle: Klucel (hydroxypropylcellulose) (HPC)
[10] = dose: 200.0 mg/kg/injection, schedule: Q04DX003 (ip), vehicle: Klucel (hydroxypropylcellulose) (HPC)
[11] = dose: 400.0 mg/kg/injection, schedule: Q01DX009 (ip), vehicle: Klucel (hydroxypropylcellulose) (HPC)
[12] = dose: 400.0 mg/kg/injection, schedule: Q04DX003 (ip), vehicle: Klucel (hydroxypropylcellulose) (HPC)
[13] = dose: 25.0 mg/kg/injection, schedule: Q01DX009 (ip), vehicle: saline with Tween-80
[14] = dose: 50.0 mg/kg/injection, schedule: Q01DX009 (ip), vehicle: saline with Tween-80
[15] = dose: 400.0 mg/kg/injection, schedule: Q01DX009 (ip), vehicle: saline with Tween-80
[16] = dose: 100.0 mg/kg/injection, schedule: Q01DX001 (ip), vehicle: carboxymethylcellulose (CMC)
[17] = dose: 200.0 mg/kg/injection, schedule: Q01DX001 (ip), vehicle: carboxymethylcellulose (CMC)
[18] = dose: 100.0 mg/kg/injection, schedule: Q01DX009 (ip), vehicle: saline with Tween-80
[19] = dose: 200.0 mg/kg/injection, schedule: Q01DX009 (ip), vehicle: saline with Tween-80

Measured: T/C

CCCCCCCCCCCCCCCCCC(=O)NCC[N+](C)(C)C
inactive: dose: 5.0 mg/kg/injection, schedule: Q01DX001 (ip), vehicle: saline 98 % of control | dose: 10.0 mg/kg/injection, schedule: Q01DX001 (ip), vehicle: saline 96 % of control | dose: 20.0 mg/kg/injection, schedule: Q01DX001 (ip), vehicle: saline 98 % of control | dose: 40.0 mg/kg/injection, schedule: Q01DX001 (ip), vehicle: saline 93 % of control | dose: 80.0 mg/kg/injection, schedule: Q01DX001 (ip), vehicle: saline 102 % of control

C#CCI
inactive: dose: 37.5 mg/kg/injection, schedule: Q04DX003 (ip), vehicle: Klucel (hydroxypropylcellulose) (HPC) 108 % of control | dose: 75.0 mg/kg/injection, schedule: Q04DX003 (ip), vehicle: Klucel (hydroxypropylcellulose) (HPC) 100 % of control | dose: 150.0 mg/kg/injection, schedule: Q04DX003 (ip), vehicle: Klucel (hydroxypropylcellulose) (HPC) 103 % of control

O=C(c1ccc(Cl)cc1)C(NCCO)c1ccc(Cl)cc1 (configuration not stated)
inactive: dose: 50.0 mg/kg/injection, schedule: Q01DX001 (ip), vehicle: saline 97 % of control | [1] 101 % of control | [2] 95 % of control | [3] 95 % of control

Cc1ccc(S(=O)(=O)OCC2CO2)c(C)c1 (configuration not stated)
inactive: dose: 50.0 mg/kg/injection, schedule: Q01DX007 (ip), vehicle: saline with Tween-80 106 % of control | dose: 100.0 mg/kg/injection, schedule: Q01DX007 (ip), vehicle: saline with Tween-80 103 % of control | dose: 200.0 mg/kg/injection, schedule: Q01DX007 (ip), vehicle: saline with Tween-80 94 % of control

CCCCOc1ccc(N)cn1
inactive: dose: 25.0 mg/kg/injection, schedule: Q01DX009 (ip), vehicle: saline 95 % of control | [4] 95 % of control | [5] 113 % of control | [6] 96 % of control

O=c1[nH]c(=O)ss1
inactive: [6] 100 % of control | dose: 200.0 mg/kg/injection, schedule: Q04DX003 (ip), vehicle: saline 94 % of control

O=C(O)C1C2/C=C/CCCCC21 (configuration not stated)
inactive: dose: 100.0 mg/kg/injection, schedule: Q04DX002 (ip), vehicle: other 104 % of control | dose: 200.0 mg/kg/injection, schedule: Q04DX002 (ip), vehicle: other 86 % of control | dose: 400.0 mg/kg/injection, schedule: Q04DX002 (ip), vehicle: other 93 % of control

CCCCOc1ccc(OC(=O)Nc2cc(Cl)ccc2OC)cc1
inactive: [7] 105 % of control | [8] 96 % of control | [9] 97 % of control | [10] 97 % of control | [11] 113 % of control | [12] 97 % of control

CC(C)(CNC1=NCCO1)NC1=NCCO1
inactive: [4] 105 % of control | [5] 107 % of control | dose: 200.0 mg/kg/injection, schedule: Q01DX009 (ip), vehicle: saline 103 % of control

CN(C)CCNc1ccccn1
inactive: dose: 75.0 mg/kg/injection, schedule: Q01DX001 (ip), vehicle: saline 98 % of control | dose: 150.0 mg/kg/injection, schedule: Q01DX001 (ip), vehicle: saline 104 % of control

O=C(COCC(=O)N/N=C/c1ccc(Cl)cc1Cl)N/N=C\c1cc(Cl)cc(Cl)c1
inactive: [7] 93 % of control | [9] 88 % of control

O=C(Nc1ccc(Cl)cc1)O/N=C/c1ccccn1
inactive: dose: 12.5 mg/kg/injection, schedule: Q01DX009 (ip), vehicle: saline with Tween-80 111 % of control | [13] 97 % of control | [14] 94 % of control | dose: 100.0 mg/kg/injection, schedule: Q01DX001 (ip), vehicle: saline with Tween-80 97 % of control | dose: 200.0 mg/kg/injection, schedule: Q01DX001 (ip), vehicle: saline with Tween-80 109 % of control | dose: 400.0 mg/kg/injection, schedule: Q01DX001 (ip), vehicle: saline with Tween-80 101 % of control | [15] 88 % of control

Cc1ccc(S(=O)(=O)OCC2OCOC2C2OCOC2COS(=O)(=O)c2ccc(C)cc2)cc1 (configuration not stated)
inactive: dose: 56.25 mg/kg/injection, schedule: Q01DX009 (ip), vehicle: carboxymethylcellulose (CMC) 95 % of control | [16] 95 % of control | dose: 112.5 mg/kg/injection, schedule: Q01DX009 (ip), vehicle: carboxymethylcellulose (CMC) 89 % of control | [17] 96 % of control | dose: 225.0 mg/kg/injection, schedule: Q01DX009 (ip), vehicle: carboxymethylcellulose (CMC) 87 % of control | dose: 400.0 mg/kg/injection, schedule: Q01DX001 (ip), vehicle: carboxymethylcellulose (CMC) 90 % of control

CN1CCCC1=O
inactive: [14] 91 % of control | [18] 88 % of control | [19] 102 % of control

O=S(=O)(C(Br)CBr)C(Br)CBr (configuration not stated)
inactive: [13] 94 % of control | [14] 107 % of control

COc1ccccc1NC(=O)C(C(C)=O)C(c1cccc([N+](=O)[O-])c1)C(C(C)=O)C(=O)Nc1ccccc1OC (configuration not stated)
inactive: [1] 96 % of control | [2] 96 % of control | [3] 89 % of control

O=C(O)c1cc([N+](=O)[O-])ccc1Cl
inactive: dose: 100.0 mg/kg/injection, schedule: Q04DX002 (ip), vehicle: Klucel (hydroxypropylcellulose) (HPC) 117 % of control | dose: 200.0 mg/kg/injection, schedule: Q04DX002 (ip), vehicle: Klucel (hydroxypropylcellulose) (HPC) 103 % of control | dose: 400.0 mg/kg/injection, schedule: Q04DX002 (ip), vehicle: Klucel (hydroxypropylcellulose) (HPC) 98 % of control

CCOC(=O)/C=C(\C)c1ccc([N+](=O)[O-])cc1
inactive: dose: 100.0 mg/kg/injection, schedule: Q01DX001 (ip), vehicle: Klucel (hydroxypropylcellulose) (HPC) 107 % of control | dose: 200.0 mg/kg/injection, schedule: Q01DX001 (ip), vehicle: Klucel (hydroxypropylcellulose) (HPC) 100 % of control | dose: 400.0 mg/kg/injection, schedule: Q01DX001 (ip), vehicle: Klucel (hydroxypropylcellulose) (HPC) 97 % of control

COc1ccc(NC(C)=O)c(C)c1
inactive: [18] 99 % of control | dose: 100.0 mg/kg/injection, schedule: Q04DX003 (ip), vehicle: saline with Tween-80 112 % of control | [19] 96 % of control | dose: 200.0 mg/kg/injection, schedule: Q04DX003 (ip), vehicle: saline with Tween-80 119 % of control | [15] 103 % of control | dose: 400.0 mg/kg/injection, schedule: Q04DX003 (ip), vehicle: saline with Tween-80 96 % of control

Cc1cc2c(cc1C)NC(=O)CC(=O)N2
inactive: [7] 96 % of control and 97 % of control | [8] 92 % of control | [9] 86 % of control | [10] 100 % of control | [11] 89 % of control | [12] 89 % of control

O=C(Oc1ccc(N=Nc2ccccc2)c(C(=O)O)c1)Oc1ccc(N=Nc2ccccc2)c(C(=O)O)c1
inactive: [16] 101 % of control | [17] 98 % of control

COC(=O)c1cc([N+](=O)[O-])c(Br)s1
inactive: [8] 93 % of control

Cc1nc(-c2ccccc2)cc(=O)o1
inactive: [8] 102 % of control | [10] 102 % of control | [12] 98 % of control
